# According to patent US20250303156A1, “CONCOMITANT TREATMENT OF TTFIELDS AND HMG-CO A REDUCTASE INHIBITORS” (NOVOCURE GMBH, priority 2024, published 2025):
# System: non small cell lung cancer (NSCLC)
# Experiment: clinical study in non small cell lung cancer: survival with statins in addition to TTFields
# Assay type: in vivo, human
# Conditions: statin plus Docetaxel plus TTFields compared to the same statin plus Docetaxel; FIGS. 5-7
# Excerpt: In some aspects, the materials and methods described in Leal et al. “Tumor Treating Fields therapy with standard systemic therapy versus standard systemic therapy alone in metastatic non-small-cell lung cancer following progression on or after platinum-based therapy (LUNAR): a randomised, open-label, pivotal phase 3 study” Lancet Oncol. 2023 September; 24(9):1002-1017 can be used, such methods and materials are hereby incorporated by reference in its entirety herein. The disclosed experiments were based on a clinical trial in which subjects received Docetaxel or a combination of Docetaxel and TTFields. The patients also received statins during the clinical trial. The statins were not part of the clinical trial, however, the patients were previously on statins due to the chronic condition and continued to receive statins.
row,SMILES,median survival of patients
1,"CC(C)c1c(C(=O)Nc2ccccc2)c(-c2ccccc2)c(-c2ccc(F)cc2)n1CC[C@@H](O)C[C@@H](O)CC(=O)O [Atorvastatin, atorvastatin]",increase in median survival
2,"CC(C)c1nc(N(C)S(C)(=O)=O)nc(-c2ccc(F)cc2)c1/C=C/[C@@H](O)C[C@@H](O)CC(=O)O [Rosuvastatin, rosuvastatin]",increase in median survival
